Experimental findings from US20220213092A1, “BICYCLIC PYRAZOLE BRUTON'S TYROSINE KINASE INHIBITORS” (AbbVie Inc., priority 2020, published 2022) are described below.

SMILES strings stand for the structures.

Test [1] deals with T1, Full length BTK enzyme (human BTK residues 2-659) (Homo sapiens, UniProt Q06187).
T1 construct: 6His (N); Flag (N); TEV cleavage site (N); Serine (single linker residue before BTK residue 2) (N); made in house; host or cells: baculovirus (pFastBac vector)
The test can be described thus: BTK MSA with full length BTK enzyme, used for Examples 50, 51, 62 and 63. As to conditions: Examples 50, 51, 62 and 63: 1 mM ATP, 0.6 nM full length BTK enzyme, 3 hours at room temperature. In kind it is biochemical. As for the experimental part:
Kinase activities for Examples 50, 51, 62 and 63 were measured in vitro using the following electrophoretic mobility shift assay (MSA). The kinase reactions were assembled in a total volume of 20 μL in 384 well plates. To each well, 20 nL test compound, or control, in 100% dimethyl sulfoxide was spotted using Echo®, a liquid dispensing instrument (Labcyte, Indianapolis, Ind.). To each well was added: 12 μL of 1.67× Full length BTK enzyme in Master Buffer (Master Buffer components: 20 mM HEPES pH 7.4, 10 mM MgCl2, 1 mM DTT, 0.1 mM sodium orthovanadate, 10 mM beta-glycerophosphate, and 0.0075% w/v Triton x-100). Full length BTK enzyme was 6His-Flag-(TEV)-S[BTK(hu) (2-659)]*BEV, pFastBac*. [Note: this is a description of the exact amino acid sequence of the expressed BTK construct from N- to C-terminus: 6Histidines, Flag tag sequence, TEV cleavage site, Serine, human BTK residues 2-659; and BEV=expressed in baculovirus, pFastBac is the expression vector used].
Enzyme and compound/inhibitor were optionally pre-incubated. To each well was added: 8 μL of 2.5×ATP and substrate in 1× Master Buffer (1× Master Buffer as described above). The plate was incubated at room temperature for 3 hours. The reaction was terminated by adding 30 μL of 1.67× Stop Buffer (Stop Buffer components 10 mM EDTA in water), to each well. The final reaction mixture was as follows: 20 mM HEPES, pH 7.4; 0.0075% Triton X-100; 1 mM DTT; 10 mM MgCl2; 0.1 mM sodium orthovanadate; 10 mM beta-glycerophosphate; 0.1% dimethyl sulfoxide (from compound); 1 mM ATP; 1 μM (OG488-SEQ ID NO. 2-NH2) peptide substrate; and 0.6 nM BTK enzyme. […] The kinase activity for the kinases in Table 3 were measured at 3 hours incubation time, except that in the case of MAP2K1 and MAP2K2 assay, pre-activation of ERK was done for 30 min with 6 μM of ATP, and then the detection of activated ERK in the presence of compounds was done after 60 minutes of incubation.
The terminated reactions were analyzed using a 12 channel LABCHIP® 3000 microfluidic detection instrument (available from Caliper Life Sciences, Waltham, Mass.). […] As substrate and product peptides were separated, two peaks of fluorescence were observed. Change in the relative fluorescence intensity of the substrate and product peaks was the parameter measured, reflecting enzyme activity. […] Capillary electrophoregrams (RDA acquisition files) were analyzed using HTS Well Analyzer software (available from Caliper Life Sciences, Waltham, Mass.).
Activity in each sample was determined as the product to sum ratio (PSR): P/(S+P), where P was the peak height of the product peptide and S was the peak height of the substrate peptide. For each compound, enzyme activity was measured at various concentrations (12 concentrations of compound spaced by 3× dilution intervals). […]

In test [2] the target is T2, Phosphorylation of Y223 of BTK (Homo sapiens, UniProt Q06187).
T2 construct: host or cells: healthy human whole blood, 3 donors
The test can be described thus: Whole blood compound screening, phosphorylation of Y223 site of BTK (MSD assay). Particulars: healthy human whole blood, 2 hours at 37° C., 3 separate donors; read-out: WB BTK-pY223 EC50. In kind it is cell-based. The method, boiled down:
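Heparinized human whole blood from 3 donors treated 2 h at 37 °C with compounds (8 points, top 10 μM, 1:4 dilution, 0.2% DMSO), then lysed. BTK pY223 quantified by MSD sandwich immunoassay (anti-BTK capture, anti-pY223 detection); EC50 from concentration response.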

T1 sequence (Q06187 2-659): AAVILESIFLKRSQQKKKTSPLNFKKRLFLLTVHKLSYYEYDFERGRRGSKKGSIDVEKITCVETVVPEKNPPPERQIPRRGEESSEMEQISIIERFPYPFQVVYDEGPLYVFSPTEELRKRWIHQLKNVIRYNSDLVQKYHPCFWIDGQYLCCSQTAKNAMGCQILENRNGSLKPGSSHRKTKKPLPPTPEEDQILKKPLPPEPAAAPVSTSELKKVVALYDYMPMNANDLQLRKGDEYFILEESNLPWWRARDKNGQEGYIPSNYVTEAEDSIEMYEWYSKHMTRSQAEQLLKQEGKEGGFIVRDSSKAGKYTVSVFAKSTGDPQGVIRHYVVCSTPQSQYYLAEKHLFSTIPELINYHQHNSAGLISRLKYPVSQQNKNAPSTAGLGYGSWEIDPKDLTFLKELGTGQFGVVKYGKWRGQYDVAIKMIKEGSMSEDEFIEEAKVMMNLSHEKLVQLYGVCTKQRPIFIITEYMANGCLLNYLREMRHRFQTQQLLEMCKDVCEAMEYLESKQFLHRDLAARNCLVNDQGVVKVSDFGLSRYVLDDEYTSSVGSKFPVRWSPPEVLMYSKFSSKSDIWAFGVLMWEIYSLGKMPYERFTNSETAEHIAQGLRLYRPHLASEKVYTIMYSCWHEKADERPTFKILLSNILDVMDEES
T2 sequence (Q06187 whole entry): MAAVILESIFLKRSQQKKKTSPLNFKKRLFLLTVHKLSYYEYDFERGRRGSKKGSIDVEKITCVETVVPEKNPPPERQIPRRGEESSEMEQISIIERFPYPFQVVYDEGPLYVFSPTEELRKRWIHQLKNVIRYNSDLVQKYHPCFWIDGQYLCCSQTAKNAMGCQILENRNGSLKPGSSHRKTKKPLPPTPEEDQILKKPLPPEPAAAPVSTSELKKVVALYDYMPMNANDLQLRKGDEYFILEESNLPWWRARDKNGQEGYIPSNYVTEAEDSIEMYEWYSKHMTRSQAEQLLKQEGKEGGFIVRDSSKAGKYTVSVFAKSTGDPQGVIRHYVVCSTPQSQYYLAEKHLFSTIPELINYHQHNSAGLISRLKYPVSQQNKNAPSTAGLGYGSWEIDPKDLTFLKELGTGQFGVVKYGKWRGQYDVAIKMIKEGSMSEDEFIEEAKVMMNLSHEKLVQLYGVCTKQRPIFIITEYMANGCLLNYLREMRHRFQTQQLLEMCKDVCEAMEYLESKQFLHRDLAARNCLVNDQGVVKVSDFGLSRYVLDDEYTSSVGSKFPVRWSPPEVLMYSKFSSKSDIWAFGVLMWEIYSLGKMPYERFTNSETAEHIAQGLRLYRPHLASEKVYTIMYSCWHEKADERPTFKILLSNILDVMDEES

As for `C=CC(=O)N1CC(N2CCNc3c2nn(-c2ccc(Oc4cccc(F)c4)cc2)c3C(N)=O)C1` [Example 62, 2-[4-(3-fluorophenoxy)phenyl]-7-[1-(prop-2-enoyl)azetidin-3-yl]-4,5,6,7-tetrahydro-2H-pyrazolo[3,4-b]pyrazine-3-carboxamide], it took 6.2 nM to reach half-maximal inhibition in test [1] (IC50). Further, the EC50 (commonly the concentration needed to bring the measured effect to its halfway point) in test [2] was found to be 7.75 nM.
On the same counts, the results for `C=CC(=O)N1CC(N2CCNc3c2nn(-c2ccc(Oc4ccc(F)c(F)c4)cc2)c3C(N)=O)C1` [Example 63, 2-[4-(3,4-difluorophenoxy)phenyl]-7-[1-(prop-2-enoyl)azetidin-3-yl]-4,5,6,7-tetrahydro-2H-pyrazolo[3,4-b]pyrazine-3-carboxamide] are 20.3 nM and 19.4 nM.
